# Laboratory results reported in patent US7316928B2, “Plant fatty acid amide hydrolases” (The University of North Texas, priority 2003, dated 2008).
# “And” between values parts separate entries of the source, which are not always exact repeats. Equal values may be shown once. Read-outs that look alike come from different tables or passages of the source.
# B1: recombinant Arabidopsis thaliana NAE amidohydrolase (Arabidopsis thaliana) (protein)
# chain: MGKYQVMKRASEVDLSTVKYKAETMKAPHLTGLSFKLFVNLLEAPLIGSLIVDYLKKDNGMTKIFRNTVIPEEPMFRPEFPSQEPEHDVVIVGEDESPIDRLETALKCLPQYDPSRSLHADPVSSFRYWKIRDYAYAYRSKLTTPLQVAKRIISIIEEFGYDKPPTPFLIRFDANEVIKQAEASTRRFEQGNPISVLDGIFVTIKDDIDCLPHPTNGGTTWLHEDRSVEKDSAVVSKLRSCGAILLGKANMHELGMGTTGNNSNYGTTRNPHDPKRYTGGSSSGSAAIVAAGLCSAALGTDGGGSVRIPSALCGITGLKTTYGRTDMTGSLCEGGTVEIIGPLASSLEDAFLVYAAILGSSSADRYNLKPSPPCFPKLLSHNGSNAIGSLRLGKYTKWFNDVSSSDISDKCEDILKLLSNNHGCKVVEIVVPELEEMRAAHVISIGSPTLSSLTPYCEAGKNSKLSYDTRTSFAIFRSFSASDYIAAQCLRRRLMEYHLNIFKDVDVIVTPTTGMTAPVIPPDALKNGETNIQVTTDLMRFVLAANLLGFPAISVPVGYDKEGLPIGLQIMGRPWAEATVLGLAAAVEELAPVTKKPAIFYDILNTN
# Experiments:
# Arabidopsis seedlings = test: Arabidopsis seedling growth / root elongation on MS medium with exogenous NAE 12:0; type: in vivo; conditions: for EC50: Arabidopsis thaliana
# Procedure: FIG. 11A-11C. Lengths of Arabidopsis seedling radicles/roots were measured daily after planting on MS medium that contained increasing concentrations of NAE 12:0. Data points are averages and standard deviation of 20 or more seedlings germinated and grown under identical conditions. There was a pronounced dose-dependent reduction in radicle/root length and elongation rate, similar to that shown previously (Blancaflor et al., 2003) for wildtype seedlings (FIG. 11A), and this seedling growth inhibition was more pronounced at higher NAE concentrations for both knockout lines (FIG. 11B and FIG. 11C).
# FIG. 12. The rate of root elongation was calculated by a linear regression of the data presented in FIG. 11, and plotted as a function of NAE concentration.
# Composite images were taken from seedlings grown on different plates, and were representative of typical replicate experiments. […] The altered profiles of extractable FAAH enzyme activities in mutant and transgenic plants led to predictable differences in the sensitivity of seedlings to exogenous NAE 12:0 indicating a modified ability of these plants to metabolize NAEs. Seedling growth of Arabidopsis wildtype seedlings was inhibited by exogenous treatment of NAE12:0).
# rice (Os) FAAH = test: NAE amidohydrolase activity of E. coli lysates expressing rice (Os) FAAH cDNA; type: biochemical, Oryza sativa; conditions: E. coli lysate, compared with NAE 18:2
# [1] = biological target: Medicago truncatula (Mt) FAAH (Medicago truncatula, UniProt G7ISB0, G303S); type: biochemical; conditions: E. coli lysate, compared with NAE 18:2
# [2] = biological target: Arabidopsis NAE amidohydrolase (Arabidopsis thaliana, UniProt Q7XJJ7); test: NAE amidohydrolase activity survey in crude E. coli lysates expressing Arabidopsis cDNA; type: biochemical
# [3] = biological target: Arabidopsis NAE amidohydrolase (FAAH) (Arabidopsis thaliana, UniProt Q7XJJ7); type: biochemical
# [4] = substrate: CCCCC/C=C\C/C=C\C/C=C\C/C=C\CCCC(=O)NCCO; test: purified protein, by the assay type; conditions: other: apparent, substrate, 1 μg protein, pH 9.0, 30 min, 30° C., Michaelis-Menten fit
# [5] = substrate: CCCCC/C=C\C/C=C\CCCCCCCC(=O)NCCO; test: purified protein, by the assay type; conditions: other: apparent, substrate, 1 μg protein, pH 9.0, 30 min, 30° C., Michaelis-Menten fit
# [6] = substrate: CCCCCCCCCCCC(=O)NCCO; test: purified protein, by the assay type; conditions: other: apparent, substrate, 1 μg protein, pH 9.0, 30 min, 30° C., Michaelis-Menten fit
# [7] = substrate: CCCCCCCCCCCCCC(=O)NCCO; test: purified protein, by the assay type; conditions: other: apparent, substrate, 1 μg protein, pH 9.0, 30 min, 30° C., Michaelis-Menten fit
# [8] = substrate: CCCCCCCCCCCCCCCC(=O)NCCO; test: purified protein, by the assay type; conditions: other: apparent, substrate, 1 μg protein, pH 9.0, 30 min, 30° C., Michaelis-Menten fit
# Medicago truncatula (Mt) FAAH, sequence (G7ISB0 whole entry G303S, looked up, the tested form may be a part): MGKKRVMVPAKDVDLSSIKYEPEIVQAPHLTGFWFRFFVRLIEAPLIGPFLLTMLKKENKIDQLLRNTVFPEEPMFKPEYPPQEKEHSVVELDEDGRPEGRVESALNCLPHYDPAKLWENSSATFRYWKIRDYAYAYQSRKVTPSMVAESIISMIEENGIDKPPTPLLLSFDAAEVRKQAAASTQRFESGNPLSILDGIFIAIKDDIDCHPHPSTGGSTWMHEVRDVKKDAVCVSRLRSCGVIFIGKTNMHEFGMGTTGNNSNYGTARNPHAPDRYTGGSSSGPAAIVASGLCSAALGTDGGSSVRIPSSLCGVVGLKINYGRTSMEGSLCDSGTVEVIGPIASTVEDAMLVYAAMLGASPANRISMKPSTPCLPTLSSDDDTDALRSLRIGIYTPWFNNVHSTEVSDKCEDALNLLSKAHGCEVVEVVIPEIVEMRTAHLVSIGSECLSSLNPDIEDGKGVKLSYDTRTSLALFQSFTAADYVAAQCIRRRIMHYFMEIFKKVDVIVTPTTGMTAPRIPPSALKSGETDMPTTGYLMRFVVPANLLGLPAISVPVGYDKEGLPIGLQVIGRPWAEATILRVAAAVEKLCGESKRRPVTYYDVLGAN
molecule,measurement,setting,value
"CCCCCCCCCCCC(=O)NCCO [NAE 12:0, N-lauroylethanolamine]",EC50,"Arabidopsis seedlings; FAAH knockout seedlings, first value of the two knockout lines, read-out: EC50, rate of root elongation",18 µM
same,EC50,"Arabidopsis seedlings; FAAH knockout seedlings, second value of the two knockout lines, read-out: EC50, rate of root elongation",23 µM
same,EC50,"Arabidopsis seedlings; read-out: concentration that reduced growth by 50% (EC50), rate of root elongation, wildtype seedlings",~29 µM
same,seedling growth inhibition,"Arabidopsis seedlings; FAAH gene expression reduced, particularly knockouts, 14 d growth",greatly exacerbated
same,seedling sensitivity to application,"Arabidopsis seedlings; FAAH overexpressors, 14 d growth",essentially insensitive
same,seedling growth,"Arabidopsis seedlings; wildtype seedlings, continuous exposure, 14 d growth",reduced
"CCCCCCCCCCCCCCCC(=O)NCCO [NAE 16:0, N-palmitoylethanolamine]",suitability as substrate,rice (Os) FAAH,equally suitable substrates
same,suitability as substrate,[1],equally suitable substrates
"CCCCC/C=C\C/C=C\CCCCCCCC(=O)NCCO [NAE 18:2, N-linoleoylethanolamine]",hydrolysis as substrate by recombinant Arabidopsis NAE amidohydrolase,[2],effectively hydrolyzed
"O=S(=O)(F)Cc1ccccc1 [PMSF, Phenylmethylsulfonyl fluoride]",Specific Activity,[3],11.34 ± 0.55 μmol h^−1 mg^−1 Protein and 9.06 ± 1.86 μmol h^−1 mg^−1 Protein and 7.89 ± 0.37 μmol h^−1 mg^−1 Protein and 6.72 ± 0.70 μmol h^−1 mg^−1 Protein and 5.96 ± 0.43 μmol h^−1 mg^−1 Protein
ceramide,hydrolysis as substrate by recombinant Arabidopsis NAE amidohydrolase,[2],did not hydrolyze
same,influence on NAE hydrolysis,[2],nor did ceramide influence NAE hydrolysis
B1,Km,[4],13.6 ± 2.1 µM
same,Vmax,[4],0.298 µmol/min/mg
same,Km,[5],26.2 ± 5.3 µM
same,Vmax,[5],0.235 µmol/min/mg
same,Km,[6],17.6 ± 2.8 µM
same,Vmax,[6],0.232 µmol/min/mg
same,Km,[7],37.0 ± 5.6 µM
same,Vmax,[7],0.152 µmol/min/mg
same,Km,[8],50.8 ± 14.1 µM
same,Vmax,[8],0.202 µmol/min/mg
